Structures can show the parent of a compound that is named as a salt.
System: Balb/c male mice kept immersed in water (stress from sleep deprivation)
Test: Water immersion sleep deprivation test, weight-loaded swimming; critical swimming time = time to nose first submerged for at least 10 seconds (Examples 1 and 3)
Details: for anti-fatigue action: fatigue animal models
Text: The anti-fatigue action in the present invention, or its effectiveness as “anti-fatigue agents” can be verified by such a method as measuring the swimming time in a water immersion sleep deprivation test. Mice that have been kept in an environment such as water immersion where they are unable to have a good sleep or take a rest position so they cannot have a physical or mental rest are forced to swim under a weight load and the critical swimming time (e.g., the time it takes for the mouse to have its nose first submerged in the water for a period of ten seconds or longer or the time it takes for the mouse to have its nose finally submerged in the water (and incapable of rising up to its surface again)) is measured to confirm the degree of their fatigue. Since this is an animal model for physical or mental fatigue, an extension of the swimming time as achieved by administering it with the test substance means the verification of resistance to fatigue, as exemplified by prevention or relief of physical and/or mental fatigue or any accompanying muscle or other pains, a sufficient increase in body strength to extend the time to total exhaustion, and maintenance of physical vigor in the tired model.
The anti-fatigue effect was evaluated by the following partial modification of the method of Tanaka et al. (Neuroscience, Let. 352, 159-162, 2003): Balb/c male mice (8-week old) were purchased from Japan SLC, Inc. and conditioned in a test environment for a week, and the animals that had grown normally were subjected to the test. They were divided into five groups, as identified in Table 1, such that each group consisted of 10 animals and had the same average body weight. […] Four of those five groups were water immersion groups under stress from sleep deprivation, which were kept in breeding cages, not on paper chips but in tap water (23° C.) supplied to a depth of 7 mm, thereby depriving the mice of sleep. During a two-day immersion in water to deprive sleep, the mice were administered orally with the associated test samples for two days on a one-dose-a-day basis. Of the two test samples, the sesamin-class compounds were dissolved in olive oil and the thiamin in distilled water. The order of administration was the thiamin followed by the sesamin-class compounds; as controls, distilled water and olive oil were administered orally.
After two days of keeping under immersion in water or normal keeping, each mouse was fitted with a weight at the tail which corresponded to 8% of its body weight, and was allowed to swim in a water tank of 18 cm^φ that was filled with water to a depth of 30 cm; the time it took for each mouse to have its nose first submerged in the water for a period of at least 10 seconds was measured as the critical swimming time. […] The degree by which the administration of the test samples (sesamin-class compounds and/or vitamin B1 class compound) could shorten the critical swimming time was measured to evaluate the anti-fatigue action of the test samples.
The anti-fatigue action from independent administration of vitamin B1 class compound was evaluated as in Example 1, except that the mice were divided into nine groups as identified in Tables 3 and 4.

What does the source list for Cc1ncc(C[n+]2csc(CCO)c2C)c(N)n1 [vitamin B1 class compound, thiamine hydrochloride]?
critical swimming time (Example 1, FIG. 1, 50 mg/kg vitamin B1 class compound oral, once a day for two days (comparative group 2) vs comparative group 1): no recognizable change in critical swimming time; critical swimming time (Example 3, FIG. 3, 5 mg/kg vitamin B1 class compound alone (reference group 1) vs comparative group 7): comparable; critical swimming time (Example 3, FIG. 3, 10 mg/kg vitamin B1 class compound alone (reference group 2) vs comparative group 7): comparable; critical swimming time (Example 3, FIG. 3, 25 mg/kg vitamin B1 class compound alone (reference group 3) vs comparative group 7): comparable; critical swimming time (Example 3, FIG. 4, 50 mg/kg vitamin B1 class compound alone (reference group 4) vs comparative group 8): comparable; critical swimming time (Example 3, FIG. 4, 100 mg/kg vitamin B1 class compound alone (reference group 5) vs comparative group 8): longer; anti-fatigue action (only vitamin B1 class compound orally, 5 to 10 mg/kg (FIG. 3)): no anti-fatigue action was observed; anti-fatigue action (vitamin B1 class compound independently, 5 mg/kg (FIGS. 3 and 4)): no anti-fatigue action was observed; anti-fatigue action (vitamin B1 class compound independently, 10 mg/kg (FIGS. 3 and 4)): no anti-fatigue action was observed; anti-fatigue action (vitamin B1 class compound independently, 25 mg/kg (FIGS. 3 and 4)): no anti-fatigue action was observed; anti-fatigue action (vitamin B1 class compound independently, 50 mg/kg (FIGS. 3 and 4)): no anti-fatigue action was observed; anti-fatigue action (vitamin B1 class compound independently, 100 mg/kg (FIGS. 3 and 4)): enhanced

Reference: patent US8703789B2, “Compositions incorporating sesamin-class compounds and vitamin B1 class compounds” (Suntory Holdings Limited, priority 2007, dated 2014)
